Experimental findings from ChEMBL document CHEMBL3758161, “Synthesis and evaluation of antibacterial and antitumor activities of new galactopyranosylated amino alcohols” (Eur J Med Chem, 2016) are described below.

pIC50: −log10 of the molar value. Values after ≈ are worked out from the molar mass of the structure shown. Bounds are passed on as bounds.

Series [1] deals with Mycobacterium tuberculosis. Put plainly: microbe, parasite or virus in culture. Particulars: H37Rv.
Description: Antibacterial activity against Mycobacterium tuberculosis H37Rv
The nature of series [2]: Lipophilicity, log P of the compound. In kind it is physicochemical. The conditions noted are these: octanol/water.
Series [3] relates to MCF7. Put plainly: Selectivity index, ratio of IC50 for human GM07492A cells to IC50 for human MCF7 cells. In kind it is functional.
The test system of a further series is M059J. Put plainly: Cytotoxicity against human M059J cells assessed as cell growth inhibition after 24 hrs by XTT assay. Format: functional, cell-based. For orientation: Formazan colour is commonly taken as a measure of viable cells.
The next series relates to HeLa. As to the kind of experiment: Cytotoxicity against human HeLa cells assessed as cell growth inhibition after 24 hrs by XTT assay. Format: functional, cell-based.
A short description of series [4]: Cytotoxicity against human GM07492A cells assessed as cell growth inhibition after 24 hrs by XTT assay. In kind it is cell-based.
Series [5] concerns MCF7. Put plainly: cells. The conditions noted are these: Homo sapiens, MCF7, 24 h.
Description: Cytotoxicity against human MCF7 cells assessed as cell growth inhibition after 24 hrs by XTT assay
Series [6] relates to Staphylococcus epidermidis. As to the kind of experiment: Antibacterial activity against gram-positive Staphylococcus epidermidis ATCC 12228 at 5 mg/ml incubated overnight by agar well diffusion method. In kind it is functional. The conditions noted are these: read-out: DIZ.
For series [7], the system named is Pseudomonas aeruginosa. Put plainly: Bactericidal activity against gram-negative Pseudomonas aeruginosa ATCC 2785 after 24 hrs by broth dilution method. Format: functional. The conditions noted are these: ATCC 2785, 24 h. A general note: In broth dilution the organism is exposed to a series of concentrations in liquid medium.
Series [8] has as its system Pseudomonas aeruginosa. Put plainly: Antibacterial activity against gram-negative Pseudomonas aeruginosa ATCC 2785 at 5 mg/ml incubated overnight by agar well diffusion method. Format: functional. Particulars: read-out: DIZ. In general terms: A growth-free zone around the sample is the usual read-out of agar diffusion tests.
Another series has as its system Escherichia coli. Put plainly: Bactericidal activity against gram-negative Escherichia coli ATCC 11229 after 24 hrs by broth dilution method. Format: functional. Particulars: ATCC 11229, 24 h.
Series [9] has as its system Staphylococcus aureus. As to the kind of experiment: Bactericidal activity against gram-positive Staphylococcus aureus ATCC 3591 after 24 hrs by broth dilution method. Format: functional. Particulars: ATCC 3591, 24 h.
The subject of series [10] is Staphylococcus epidermidis. As to the kind of experiment: Bactericidal activity against gram-positive Staphylococcus epidermidis ATCC 12228 after 24 hrs by broth dilution method. In kind it is functional. Particulars: ATCC 12228, 24 h.
Series [11] relates to Staphylococcus aureus. As to the kind of experiment: Antibacterial activity against gram-positive Staphylococcus aureus ATCC 3591 at 5 mg/ml incubated overnight by agar well diffusion method. In kind it is functional. The conditions noted are these: read-out: DIZ.

`CCCCCCCCCCCCNCCN` gave an MIC in series [1] of 27 µM (≈ 6.17 µg/mL). Moreover, the logP (as a rule, the decadic logarithm of the partition coefficient of the neutral form, usually between octanol and water) in series [2] is 4.69.

As for `CCCCCCCCCCCCNCCO`, the MIC in series [1] was 27 µM (≈ 6.19 µg/mL). In series [2], this compound registered a log partition coefficient (logP) of 3.93.

Consider `CCCCCCCCNCCO`, for which, in series [1], the MIC was 577 µM (≈ 100 µg/mL). In series [2], this compound gave a logP of 2.55.

Consider `CCCCCCCCCCNCCO`, for which, in series [1], the MIC came out at 248 µM (≈ 49.9 µg/mL). In [2], this compound came in with a logP of 3.09.

As to `CCCCCCCCCCCCN(CCO)C[C@@H](O)COC[C@H]1O[C@@H]2OC(C)(C)O[C@@H]2[C@H]2OC(C)(C)O[C@H]21`, the “Ratio IC50” value with MCF7 [3] came out at 3.4. For the same compound, the pIC50 – broadly, −log10 of the IC50, conventionally taken in molar units – is 4.01 in the series with M059J, 3.98 with HeLa, 3.59 in series [4] and 4.12 with MCF7 [5]. The MIC in [1] was found to be 29 µM (≈ 15.8 µg/mL). The compound further had a logP in [2] of 4.22.

For `CCCCCCCCC(O)CNCCO` (stereo unspecified), in [1], the MIC turned out to be 460 µM (≈ 100 µg/mL). In series [2], this compound registered a logP of 2.14.

For the compound `CCCCCCCCCCCCC(O)CNCCO` (stereo unspecified), in series [1], the MIC is 46 µM (≈ 12.6 µg/mL). In addition, the lipophilicity (logP) in series [2] was found to be 4.69.

As to `CCCCCCCCCCNCCCN`, the MIC in series [1] turned out to be 116 µM (≈ 24.9 µg/mL). In [2], this compound yielded a lipophilicity (logP) of 2.82.

Take `CCCCCCCCCCNCCN`: in series [1], the MIC is 249 µM (≈ 49.9 µg/mL). This compound also gave a logP in [2] of 2.71.

In the case of `CCCCCCCCCCCCCCNCCN`, the MIC in series [1] is 97 µM (≈ 24.9 µg/mL). In addition, in series [2], the logP turned out to be 4.5.

For `CCCCCCCCCCC(O)CNCCO` (stereo unspecified), in [1], the MIC was found to be 102 µM (≈ 25 µg/mL). Also, in [2], the logP is 3.62.

Regarding `CCCCCCCCCCCCN(CCO)C[C@H](O)COC[C@H]1O[C@@H]2OC(C)(C)O[C@@H]2[C@H]2OC(C)(C)O[C@H]21`, the “Ratio IC50” value in the series with MCF7 [3] was 0.8. The pIC50 in the series on HeLa was 3.79; in [4], 3.79; in the series on MCF7 [5] it was 3.74. In series [1], this compound had an MIC of 15 µM (≈ 8.19 µg/mL). In series [2], this compound gave a logP of 4.22.

Take `CCCCCCCCCCCCCCNCCCN`: the MIC in [1] came out at 46 µM (≈ 12.4 µg/mL). Moreover, in [2], the log partition coefficient (logP) is 4.88.

Turning to `CCCCCCCCCCCCNCCCN`, the MIC in series [1] amounted to 103 µM (≈ 25 µg/mL). Also, the logP in series [2] was determined as 5.06.

In the case of `CCCCCCCCCCC(O)CN(CCO)CC(O)COC[C@H]1O[C@@H]2OC(C)(C)O[C@@H]2[C@H]2OC(C)(C)O[C@H]21` (mixture of isomers), the zone of inhibition at 5000 µg/mL came to 11 mm in series [6] and 20 mm with Pseudomonas aeruginosa [8]. Further, the minimal bactericidal concentration (MBC) (commonly the smallest concentration meeting the test's criterion for killing) in the series with Pseudomonas aeruginosa [7] is above 911 µM; with Escherichia coli, above 911 µM; against Staphylococcus aureus [9] it was above 911 µM; in series [10] it was 28 µM. Further, in series [1], the MIC came out at 175 µM. Also, the lipophilicity (logP) in [2] amounted to 3.37.

For `CCCCCCCCCCCCCCN(CCO)CC(O)COC[C@H]1O[C@@H]2OC(C)(C)O[C@@H]2[C@H]2OC(C)(C)O[C@H]21` (mixture of isomers), the “Ratio IC50” value in the series on MCF7 [3] is on record as 2.7. The zone of inhibition at 5000 µg/mL is 30 mm in [6] and 18 mm in the series with Staphylococcus aureus [11]. Moreover, the minimal bactericidal concentration (MBC) in the series with Pseudomonas aeruginosa [7] was 892 µM; against Escherichia coli, above 892 µM; against Staphylococcus aureus [9] it was 111 µM; in series [10], 3 µM. Further, the pIC50 in the series with M059J is 4.89; in the series on HeLa, 4.06; in series [4], 4.08; in the series with MCF7 [5] it was 4.51. Besides, in series [1], the MIC was found to be 22 µM. The logP in [2] is 5.06.

Take `CCCCCCCCN(CCO)CC(O)COC[C@H]1O[C@@H]2OC(C)(C)O[C@@H]2[C@H]2OC(C)(C)O[C@H]21` (mixture of isomers): the MIC in series [1] was above 204 µM. The same compound displayed a lipophilicity (logP) in [2] of 2.55.

For the compound `CCCCCCCCCCCCC(O)CN(CCO)CC(O)COC[C@H]1O[C@@H]2OC(C)(C)O[C@@H]2[C@H]2OC(C)(C)O[C@H]21` (mixture of isomers), the results for the zone of inhibition at 5000 µg/mL (in series [6]; with Staphylococcus aureus [11]) were 18 mm and 20 mm, respectively. In addition, the MBC was above 868 µM in the series with Pseudomonas aeruginosa [7], above 868 µM with Escherichia coli, above 868 µM in the series with Staphylococcus aureus [9] and 13 µM in series [10].

Turning to `CCCCCCCCCCN(CCO)CC(O)COC[C@H]1O[C@@H]2OC(C)(C)O[C@@H]2[C@H]2OC(C)(C)O[C@H]21` (mixture of isomers), the zone of inhibition at 5000 µg/mL (in series [6]; with Staphylococcus aureus [11]) was 20 mm in each case. Besides, the MBC in the series with Pseudomonas aeruginosa [7] is 988 µM; against Escherichia coli it was above 988 µM; in the series on Staphylococcus aureus [9] it was 123 µM; in [10], 61 µM. The compound further came in with an MIC in series [1] of 96 µM. In series [2], this compound came in with a log partition coefficient (logP) of 3.39.

Take `CCCCCCCCCCCCNCCCNCC(O)COC[C@H]1O[C@@H]2OC(C)(C)O[C@@H]2[C@H]2OC(C)(C)O[C@H]21` (mixture of isomers): in the series with MCF7 [3], the “Ratio IC50” value came out at 0.8. Besides, the results for the zone of inhibition at 5000 µg/mL (in series [6]; in the series with Staphylococcus aureus [11]) were 19 mm and 20 mm, respectively. In addition, the MBC (with Pseudomonas aeruginosa [7]; against Escherichia coli; with Staphylococcus aureus [9]; in series [10]) was above 916 µM throughout. In addition, the pIC50 is 4.46 in the series with M059J, 4.46 with HeLa, 4.63 in series [4] and 4.56 in the series on MCF7 [5]. In series [1], this compound had an MIC of 22 µM. The compound also returned a lipophilicity (logP) in series [2] of 4.09.

As for `CCCCCCCCCCCCCCNCCCNCC(O)COC[C@H]1O[C@@H]2OC(C)(C)O[C@@H]2[C@H]2OC(C)(C)O[C@H]21` (mixture of isomers), the “Ratio IC50” value with MCF7 [3] came to 0.4. Besides, the negative logarithm of the IC50 (pIC50) was 3.71 with M059J, 3.83 with HeLa, 4.10 in series [4] and 3.71 in the series on MCF7 [5]. This compound also registered an MIC in [1] of 42 µM. Besides, the logP in series [2] was found to be 4.12.

For `CC[C@@]1(O)C(=O)OCc2c1cc1n(c2=O)Cc2cc3ccccc3nc2-1` [CAMPTOTHECIN], in the series with MCF7 [3], the “Ratio IC50” value is recorded as 0.5. The pIC50 was 5.26 in the series on M059J, 4.70 with HeLa, 5.49 in series [4] and 5.22 with MCF7 [5].

Regarding `COc1cccc2c1C(=O)c1c(O)c3c(c(O)c1C2=O)C[C@@](O)(C(=O)CO)C[C@@H]3O[C@H]1C[C@H](N)[C@H](O)[C@H](C)O1` [DOXORUBICIN], the pIC50 in the series with M059J is 5.16; with HeLa it was 4.66; in series [4], 6.30.

Turning to `CC[C@@H](CO)NCCN[C@@H](CC)CO` [ETHAMBUTOL], the MIC in series [1] amounted to 15 µM (≈ 3.06 µg/mL).

As for `COc1cc([C@@H]2c3cc4c(cc3[C@@H](O[C@@H]3O[C@@H]5CO[C@@H](C)O[C@H]5[C@H](O)[C@H]3O)[C@H]3COC(=O)[C@H]23)OCO4)cc(OC)c1O` [ETOPOSIDE], the “Ratio IC50” value in the series on MCF7 [3] was 0. Further, the negative-log IC50 (pIC50) in the series with M059J is 4.23; with HeLa it was 3.65; in series [4] it was 5.92; with MCF7 [5], 4.08.

Consider `CCCCCCCCCCCCCCNCCO` [MYRALACT], for which the MIC in series [1] was 49 µM (≈ 12.6 µg/mL). The same compound came in with a logP in [2] of 4.76.

With `CO[C@H]1/C=C/O[C@@]2(C)Oc3c(C)c(O)c4c(O)c(c(/C=N/N5CCN(C)CC5)c(O)c4c3C2=O)NC(=O)/C(C)=C\C=C\[C@H](C)[C@H](O)[C@@H](C)[C@@H](O)[C@@H](C)[C@H](OC(C)=O)[C@@H]1C` [RIFAMPIN], in series [1], the MIC came out at 1 µM (≈ 0.823 µg/mL).
